Here are results for seven compounds from patent publication US4960755A, “BU-3608 derivatives” (Bristol-Myers Company, priority 1988, dated 1990).

SMILES strings stand for the structures. In brackets after ≈: the same amount, converted by molar mass. Where two headings read alike, the source gives them in different places. Where only a bound is given, the exact number is not on record here.

The nature of one series: Solubility in water. Type of series: physicochemical. Particulars: in words.
The nature of series [1]: Solubility in phosphate-buffered saline solutions, PBS(-) and PBS(+). Type of series: physicochemical. On the procedure: The solubility of the various antibiotics was determined in phosphate-buffered saline (PBS) solutions and the data obtained are shown below. PBS(-) refers to a solution containing for each liter 0.2 g KCl, 0.2 g KH2 PO4, 8 g NaCl, and 1.15 g Na2 HPO4; PBS(+) contains additionally 100 mg MgCl2.6H2 O and 100 mg CaCl2.

Another series has as its system Candida albicans A9540. The experiment in a line: In vivo activity against Candida albicans A9540 infection in mice. The arrangement: species or system male ICR mice. Particulars: for ED50: Candida albicans, read-out: PD50 (dose that protects 50% of the animals from infection). On the procedure:
In vivo activity of compounds of the present invention was tested against Candida albicans A9540 infection in mice. Test organisms were cultured for 18 hours at 28° C. in YGP medium (yeast extract, glucose, peptone, K2 HPO4, MgSO4) and then suspended in saline. Male ICR mice weighing 20 to 24 g were infected intravenously with about 10 times the median lethal dose of the test fungus. The antibiotic at various dose levels was administered to groups of 5 mice each intravenously just after the fungal infection. The dose that protects 50% of the animals from infection (PD50, mg/kg) was calculated from survival rates recorded on the 20th day after the fungal challenge. All control animals died within 7 to 15 days after infection. The PD50 for compounds of Examples 5, 7, and 8 are 14 mg/kg (toxic), 11 mg/kg, and 3.5 mg/kg, respectively.

[2] abbreviates: pbs(+) with mgcl2, PBS(+), containing additionally MgCl2 and CaCl2, read-out: Solubility.
The mark [3] stands for this setting: A9540, 480 h, intravenous just after infection, survival on 20th day.

As a reminder, the solubility is the dissolved amount per volume that the medium holds. As for `CN[C@@H]1[C@H](O[C@@H]2OC[C@@H](O)[C@H](O)[C@H]2O)[C@@H](O)[C@H](O[C@H]2c3cc(C)c(C(=O)N[C@H](C)C(=O)O)c(O)c3-c3c(cc4c(c3O)C(=O)c3cc(OC)cc(O)c3C4=O)[C@@H]2O)O[C@@H]1C` [BU-3608], the solubility in water entry in “Solubility in water” was “very limited”. Further, the solubility in series [1] (setting [2]) was in the range of 0.009 to 0.023 mg/mL (≈ 10.7 to 27.4 µM); in series [1] (pbs(-), read-out: Solubility), 0.016 to 0.018 mg/mL (≈ 19 to 21.4 µM).
Regarding `COc1cc(O)c2c(c1)C(=O)c1c(cc3c(c1O)-c1c(cc(C)c(C(=O)N[C@H](C)C(=O)O)c1O)[C@H](O[C@@H]1O[C@H](C)[C@H](N(C)C)[C@H](O)[C@H]1O)[C@H]3O)C2=O` [Example 5, N-methyl BU-3608 B], the solubility in series [1] (pbs(+) with mgcl2, cacl2) came to 0.042 mg/mL (≈ 58.1 µM); in series [1] (pbs(-)), 0.33 mg/mL (≈ 457 µM). Besides, the ED50 in the series with Candida albicans A9540 (A9540, iv, 480 h) amounted to 14 mg/kg. In addition, the “toxicity remark at PD50” value with Candida albicans A9540 (intravenous, at 14 mg/kg, mice) is listed as “toxic”.
As to `COc1cc(O)c2c(c1)C(=O)c1c(cc3c(c1O)-c1c(cc(C)c(C(=O)NCC(=O)O)c1O)[C@H](O[C@@H]1O[C@H](C)[C@H](N(C)C)[C@H](O)[C@H]1O)[C@H]3O)C2=O` [Example 6, N,N-dimethyl desxylosyl BU-3608 E], the solubility in series [1] (pbs(+) with mgcl2, cacl2) is 0.122 mg/mL (≈ 172 µM); in series [1] (pbs(-)), more than 2.1 mg/mL.
In the case of `COc1cc(O)c2c(c1)C(=O)c1c(cc3c(c1O)-c1c(cc(C)c(C(=O)NCC(=O)O)c1O)[C@H](O[C@@H]1O[C@H](C)[C@H](N(C)C)[C@H](O[C@@H]4OC[C@@H](O)[C@H](O)[C@H]4O)[C@H]1O)[C@H]3O)C2=O` [Example 7, N,N-dimethyl BU-3608 E], the solubility is more than 2 mg/mL in series [1] (setting [2]) and 1.8 mg/mL (≈ 2140 µM) in series [1] (pbs(-), read-out: Solubility). In addition, the ED50 with Candida albicans A9540 (setting [3]) worked out at 11 mg/kg.
For the compound `COc1cc(O)c2c(c1)C(=O)c1c(cc3c(c1O)-c1c(cc(C)c(C(=O)N[C@H](C)C(=O)O)c1O)[C@H](O[C@@H]1O[C@H](C)[C@H](N(C)C)[C@H](O[C@@H]4OC[C@@H](O)[C@H](O)[C@H]4O)[C@H]1O)[C@H]3O)C2=O` [Example 8, N-methyl BU-3608], the solubility was 0.003 mg/mL (≈ 3.51 µM) in series [1] (setting [2]) and 3.1 mg/mL (≈ 3630 µM) in series [1] (pbs(-), read-out: Solubility). Moreover, the ED50 with Candida albicans A9540 (setting [3]) was 3.5 mg/kg.
Turning to `CCCN(C)[C@@H]1[C@H](O[C@@H]2OC[C@@H](O)[C@H](O)[C@H]2O)[C@@H](O)[C@H](O[C@H]2c3cc(C)c(C(=O)N[C@H](C)C(=O)O)c(O)c3-c3c(cc4c(c3O)C(=O)c3cc(OC)cc(O)c3C4=O)[C@@H]2O)O[C@@H]1C` [Example 9, N-propyl BU-3608], the solubility in series [1] (setting [2]) stood at 0.032 mg/mL (≈ 36.2 µM); in series [1] (pbs(-), read-out: Solubility), 0.073 mg/mL (≈ 82.7 µM).
For the compound `COc1cc(O)c2c(c1)C(=O)c1c(cc3c(c1O)-c1c(cc(C)c(C(=O)N[C@H](C)C(=O)O)c1O)[C@H](O[C@@H]1O[C@H](C)[C@H]([N+](C)(C)C)[C@H](O[C@@H]4OC[C@@H](O)[C@H](O)[C@H]4O)[C@H]1O)[C@H]3O)C2=O` [Example 10, quaternary ammonium derivative of BU-3608], in series [1] (pbs(-), read-out: Solubility), the solubility is more than 2.7 mg/mL.
